The text below walks through data of US20250270190A1, “KIT INHIBITORS” (BLUEPRINT MEDICINES CORPORATION, priority 2022, published 2025).

Structures can show the parent of a compound that is named as a salt.

The target in this assay is T1, c-kit autophosphorylation (Phospho c-Kit Tyr721) in HMC 1.1 (exon 11/13) cells, V654A (Homo sapiens, UniProt P10721, V560G/V654A).
T1 construct: endogenous in cells; host or cells: HMC 1.1 (exon 11/13) cells
T1 sequence (P10721 26-976 V560G/V654A): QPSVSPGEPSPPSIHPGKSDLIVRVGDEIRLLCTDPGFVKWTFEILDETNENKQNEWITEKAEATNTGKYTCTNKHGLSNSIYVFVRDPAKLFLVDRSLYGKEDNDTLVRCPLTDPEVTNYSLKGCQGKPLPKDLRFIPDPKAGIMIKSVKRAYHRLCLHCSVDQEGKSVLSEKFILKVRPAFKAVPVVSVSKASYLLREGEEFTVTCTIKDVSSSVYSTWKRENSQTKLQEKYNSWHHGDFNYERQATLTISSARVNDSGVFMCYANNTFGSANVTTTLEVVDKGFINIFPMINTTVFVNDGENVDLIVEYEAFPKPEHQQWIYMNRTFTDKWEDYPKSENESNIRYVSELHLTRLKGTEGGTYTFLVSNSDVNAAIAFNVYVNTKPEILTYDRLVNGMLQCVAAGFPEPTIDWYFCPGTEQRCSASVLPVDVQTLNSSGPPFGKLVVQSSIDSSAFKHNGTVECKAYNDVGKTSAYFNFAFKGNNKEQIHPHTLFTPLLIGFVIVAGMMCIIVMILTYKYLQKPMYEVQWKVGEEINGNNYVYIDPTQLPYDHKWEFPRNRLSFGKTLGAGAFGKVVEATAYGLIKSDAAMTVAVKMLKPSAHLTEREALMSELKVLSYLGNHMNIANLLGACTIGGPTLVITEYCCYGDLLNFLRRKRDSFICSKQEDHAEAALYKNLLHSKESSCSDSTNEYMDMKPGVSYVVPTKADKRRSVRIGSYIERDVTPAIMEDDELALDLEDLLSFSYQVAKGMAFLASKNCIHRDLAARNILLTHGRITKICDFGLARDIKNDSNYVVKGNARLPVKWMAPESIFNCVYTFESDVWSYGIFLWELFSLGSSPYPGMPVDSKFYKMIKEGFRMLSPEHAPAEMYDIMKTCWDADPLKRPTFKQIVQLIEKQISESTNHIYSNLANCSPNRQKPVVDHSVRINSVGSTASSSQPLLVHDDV
Description: pKIT Meso Scale Discovery (MSD) assay, inhibition of autophosphorylation of KIT, HMC1.1_V654A. Type of assay: cell-based. The note with it: Table 1, cell line not named for Table 1, b1056 names pKIT HMC1.1_V654A, read-out: Code (IC50 for inhibition of autophosphorylation of KIT, pKIT MSD assay). From the text:
In this MSD assay, specific capture antibodies for the analytes were coated in arrays in each well of a 96-well carbon electrode plate surface. The detection system used SULFO-TAG™ labels that emit light upon electrochemical stimulation initiated at the electrode surfaces of the […] and MULTI-SPOT® plates. The electrical stimulation was decoupled from the output signal, which was light and generated assays with minimal background. The goal of this assay was to assess the percent inhibition of autophosphorylation of c-kit in cells when treated with compounds of the disclosure in a dose-dependent manner.
HMC1.1 cells were maintained in IMDM media supplemented with 20% Calf Serum with Iron and 100 units/mL Penicillin-Streptomycin and grown in a 37° C. humidified tissue culture incubator. HMC1.1 cells were passaged by 1:5 dilution into fresh IMDM media supplemented with 20% Calf Serum with Iron and 100 units/mL Penicillin-Streptomycin every 5-7 days and were discarded after 20 passages.
Seeding was performed as follows: HMC cells were brought to 1×10^6 cells/mL in fresh phenol red free, serum-free, iron-free IDM media with Pen/Strep; cells were seeded/plated into respective U-bottom plate by dispensing 50 μL/well (50,000 cells) using the Multidrop, and covered and incubated cells at 37° C. in a humidified tissue culture incubator for 4 hours (starvation).
Dosing was performed as follows: The compound mother plate was prepared by adding 16 μL of compound to 24 μL of DMSO to row A, odd-numbered columns of screen matrix plate. […] Intermediate plates were prepared in V-bottom plates by dispensing 98 μL of phenol red free, serum free IMDM media with Pen/Strep into all wells. 2 μL DMSO or 2 μL 10 mM staurosporine was added to appropriate control wells. At the end of four hours, the Bravo protocol 10 cpds vertical dose MSD 2 U-plates 96-well was used to: add 2 μL from the compound plate to the intermediate plate and dose cells with 7 μL from the intermediate plate. The cells were covered and incubated at 37° C. in a humidified tissue culture incubator for 90 min. The complete lysis buffer was prepared with AlphaLISA 5× Lysis Buffer supplemented with 1× protease inhibitor cocktail and kept on ice. The cells were pelleted by centrifuging plate at 2500×g for 5 min, 4° C. and media removed. Complete lysis buffer was added (14 μL/well). The cells were covered and shaken at 4° C. on a plate shaker at 600 rpm for 30 min and kept cold
The MSD protocol was preformed as follows: Tris Wash Buffer (2L) was prepared by diluting 10× stock of Tris Wash Buffer to 1× in water. Blocking Solution was prepared by dissolving 600 mg Blocker A in 20 mL 1× Trish Wash Buffer (per plate). The Antibody Dilution Buffer was prepared by mixing 1 mL Blocking solution and 2 mL 1× Trish Wash Buffer (per plate) and kept on ice. Blocking Solution was added (150 μL/well) to each MSD plate using a multichannel repeater pipette. The plate was covered and incubated at room temperature on a plate shaker at 700 rpm for hr. The Bio Tek protocol RL-96w-wash-MSD_stacker_fromC was used to wash plates 3× with 150 μL/well. Cells were pelleted by centrifuging lysate plates at 2500×g for 5 mins. The Bravo protocol was used (transfer 25 ul supernatants from V-96 to assay plate) to transfer 25 μL sample lysate per well to each MSD plate. The plates were covered and incubated at room temperature on a plate shaker at 700 rpm for hr. The Bio Tek protocol RL-96w-wash-MSD_stacker_fromC was used to wash plates 3× with 150 μL/well. The Detection Antibody Solution was prepared by diluting the 60 μL of the 50× antibody stock in 2.94 mL of the Antibody Dilution Buffer (per plate) and kept on ice. 25 μL/well of detection antibody solution was added to each MSD plate. The plates were covered and incubated at room temperature on a plate shaker at 700 rpm for 1 hr. The Read Buffer was prepared by diluting 5 mL of 4× stock of Read Buffer to 1× in 15 mL water (per plate).
In the case of `CCC(C)CNc1cc(Nc2cc(N)nc(C(F)F)n2)ncc1C(=O)NC` (stereo not shown) [Compound 65, 6-((6-amino-2-(difluoromethyl)pyrimidin-4-yl)amino)-N-methyl-4-((2-methylbutyl)amino)nicotinamide], the IC50 lay within 10 to 40 nM. With `CC(C)Oc1cc(Nc2cc(N)nc([C@H](C)F)n2)ncc1-c1cnn([C@@H]2CCOC2)c1` (single isomer, unassigned) [Compound 156, 2-((S)-1-fluoroethyl)-N4-(4-isopropoxy-5-(1-((R)-tetrahydrofuran-3-yl)-1H-pyrazol-4-yl)pyridin-2-yl)pyrimidine-4,6-diamine or 2-((S)-1-fluoroethyl)-N4-(4-isopropoxy-5-(1-((S)-tetrahydrofuran-3-yl)-1H-pyrazol-4-yl)pyridin-2-yl)pyrimidine-4,6-diamine], the half-inhibitory concentration (IC50) is less than 10 nM. With `C[C@@H](CF)Oc1cc(Nc2cc(N)nc(C(F)F)n2)ncc1-c1cnn(C)c1` (single isomer, unassigned) [Compound 87, (S)-2-(difluoromethyl)-N4-(4-((1-fluoropropan-2-yl)oxy)-5-(1-methyl-1H-pyrazol-4-yl)pyridin-2-yl)pyrimidine-4,6-diamine or (R)-2-(difluoromethyl)-N4-(4-((1-fluoropropan-2-yl)oxy)-5-(1-methyl-1H-pyrazol-4-yl)pyridin-2-yl)pyrimidine-4,6-diamine], the concentration for half-maximal inhibition (IC50) was less than 10 nM. The same measure for `CNC(=O)c1cnc(Nc2cc(N)nc([C@@H](C)F)n2)cc1NC(C)C` [Compound 20, (R)-6-((6-amino-2-(1-fluoroethyl)pyrimidin-4-yl)amino)-4-(isopropylamino)-N-methylnicotinamide]: more than 40 nM; for `CC(C)Nc1cc(Nc2cc(N)nc(C(F)F)n2)ncc1C(=O)NCC1CC1` [Compound 86, 6-((6-amino-2-(difluoromethyl)pyrimidin-4-yl)amino)-N-(cyclopropylmethyl)-4-(isopropylamino)nicotinamide]: 10 to 40 nM; for `CN[C@H](C)Cn1cc(-c2cnc(Nc3cc(N)nc(C(F)F)n3)cc2OC(F)(F)F)cn1` (single isomer, unassigned) [Compound 196, (R)-2-(difluoromethyl)-N4-(5-(1-(2-(methylamino)propyl)-1H-pyrazol-4-yl)-4-(trifluoromethoxy)pyridin-2-yl)pyrimidine-4,6-diamine or (S)-2-(difluoromethyl)-N4-(5-(1-(2-(methylamino)propyl)-1H-pyrazol-4-yl)-4-(trifluoromethoxy)pyridin-2-yl)pyrimidine-4,6-diamine]: less than 10 nM. Turning to `COc1cc(Nc2cc(N)nc(C(F)F)n2)ncc1-c1cnn(CCN(C)C)c1` [Compound 115, 2-(difluoromethyl)-N4-(5-(1-(2-(dimethylamino)ethyl)-1H-pyrazol-4-yl)-4-methoxypyridin-2-yl)pyrimidine-4,6-diamine], the half-inhibitory concentration (IC50) fell in the range of 10 to 40 nM. Consider `Nc1cc(Nc2cc(OC3CC3)c(-c3cnn(CCO)c3)cn2)nc(C(F)F)n1` [Compound 108, 2-(4-(6-((6-amino-2-(difluoromethyl)pyrimidin-4-yl)amino)-4-cyclopropoxypyridin-3-yl)-1H-pyrazol-1-yl)ethan-1-ol], for which the concentration for half-maximal inhibition (IC50) is less than 10 nM.

For the compound `CC(C)(N)Cn1cc(-c2cnc(Nc3cc(N)nc(C(F)F)n3)cc2OC2CC2)cn1` [Compound 169, N4-(5-(1-(2-amino-2-methylpropyl)-1H-pyrazol-4-yl)-4-cyclopropoxypyridin-2-yl)-2-(difluoromethyl)pyrimidine-4,6-diamine], the IC50 is less than 10 nM. The same measure for `Cn1cc(-c2cnc(Nc3cc(N)nc(C(F)F)n3)cc2OC[C@H]2C[C@H](O)C2)cn1` [Compound 144, (1r,3r)-3-(((2-((6-amino-2-(difluoromethyl)pyrimidin-4-yl)amino)-5-(1-methyl-1H-pyrazol-4-yl)pyridin-4-yl)oxy)methyl)cyclobutan-1-ol]: 10 to 40 nM; for `CCNC(=O)c1cnc(Nc2cc(N)nc(C(F)F)n2)cc1NC` [Compound 13, 6-((6-amino-2-(difluoromethyl)pyrimidin-4-yl)amino)-N-ethyl-4-(methylamino)nicotinamide]: 10 to 40 nM; for `CNC(C)(C)Cn1cc(-c2cnc(Nc3cc(N)nc(C(F)F)n3)cc2OC(F)(F)F)cn1` [Compound 200, 2-(difluoromethyl)-N4-(5-(1-(2-methyl-2-(methylamino)propyl)-1H-pyrazol-4-yl)-4-(trifluoromethoxy)pyridin-2-yl)pyrimidine-4,6-diamine]: less than 10 nM. Turning to `CNC(=O)c1cnc(Nc2cc(N)nc(CF)n2)cc1NC` [Compound 1, 6-((6-amino-2-(fluoromethyl)pyrimidin-4-yl)amino)-N-methyl-4-(methylamino)nicotinamide], the IC50 is 10 to 40 nM. The same measure for `Nc1cc(Nc2cc(OC(F)F)c(-c3cnn(CCN4CCC4)c3)cn2)nc(C(F)F)n1` [Compound 191, N4-(5-(1-(2-(azetidin-1-yl)ethyl)-1H-pyrazol-4-yl)-4-(difluoromethoxy)pyridin-2-yl)-2-(difluoromethyl)pyrimidine-4,6-diamine]: less than 10 nM. Regarding `CNC(=O)c1cnc(Nc2cc(N)nc(C(F)F)n2)cc1NC1CCOC1` (stereo not shown) [Compound 64, 6-((6-amino-2-(difluoromethyl)pyrimidin-4-yl)amino)-N-methyl-4-((tetrahydrofuran-3-yl)amino)nicotinamide], the IC50 is 10 to 40 nM. With `CCNc1cc(Nc2cc(N)nc(C(F)F)n2)ncc1C(=O)NC` [Compound 12, 6-((6-amino-2-(difluoromethyl)pyrimidin-4-yl)amino)-4-(ethylamino)-N-methylnicotinamide], the IC50 was less than 10 nM. For `COc1cc(Nc2cc(N)nc(C(F)F)n2)ncc1-c1cnn(C2CNC2)c1` [Compound 76, N4-(5-(1-(azetidin-3-yl)-1H-pyrazol-4-yl)-4-methoxypyridin-2-yl)-2-(difluoromethyl)pyrimidine-4,6-diamine formate], the IC50 is more than 40 nM. Turning to `COc1cc(Nc2cc(N)nc(C(F)F)n2)ncc1-c1cnn(C2CC(O)C2)c1` (stereo not shown) [Compound 112, 3-(4-(6-((6-amino-2-(difluoromethyl)pyrimidin-4-yl)amino)-4-methoxypyridin-3-yl)-1H-pyrazol-1-yl)cyclobutan-1-ol], the IC50 lay within 10 to 40 nM. As for `CCNc1cc(Nc2cc(N)nc(CF)n2)ncc1C(=O)NC12CC(CO)(C1)C2` [Compound 96, 6-((6-amino-2-(fluoromethyl)pyrimidin-4-yl)amino)-4-(ethylamino)-N-(3-(hydroxymethyl)bicyclo[1.1.1]pentan-1-yl)nicotinamide], the figure is 10 to 40 nM. Take `C[C@H](CF)Oc1cc(Nc2cc(N)nc(C(F)F)n2)ncc1-c1cnn(C)c1` (single isomer, unassigned) [Compound 88, (R)-2-(difluoromethyl)-N4-(4-((1-fluoropropan-2-yl)oxy)-5-(1-methyl-1H-pyrazol-4-yl)pyridin-2-yl)pyrimidine-4,6-diamine or (S)-2-(difluoromethyl)-N4-(4-((1-fluoropropan-2-yl)oxy)-5-(1-methyl-1H-pyrazol-4-yl)pyridin-2-yl)pyrimidine-4,6-diamine]: the concentration for half-maximal inhibition (IC50) is less than 10 nM. Turning to `COc1cc(Nc2cc(N)nc(C(F)F)n2)ncc1-c1cnn(C(C)C)c1` [Compound 56], the half-inhibitory concentration (IC50) is less than 10 nM. Consider `COc1cc(Nc2cc(N)nc(C(F)F)n2)ncc1-c1cnn(C2CC2)c1` [Compound 52, N4-(5-(1-cyclopropyl-1H-pyrazol-4-yl)-4-methoxypyridin-2-yl)-2-(difluoromethyl)pyrimidine-4,6-diamine], for which the IC50 was less than 10 nM.

For orientation: IC50 means the concentration at which inhibition is half-maximal.
